≈ marks a conversion by molar mass, not a printed value. Calls of active or inactive are those of the source. The rule behind the calls is not given here.
Experiments:
[1] = target: NAD(P)H dehydrogenase [quinone] 1 (Homo sapiens) (UniProt P15559); assay: Substrate activity at NQO1 in human A549 cells assessed as induction of ROS-induced p38 phosphorylation at T180/Y182 after 3 hrs by Western blot analysis; format: cell-based
[2] = Intrinsic solubility of the compound; format: physicochemical; details: read-out: Intrinsic_solubility
[3] = Solubility of the compound in diluted HCl buffer at pH 3; format: physicochemical
[4] = tested on: A549/TR; assay: Cytotoxicity against human A549/TR cells assessed as cell growth inhibition preincubated for 24 hrs followed by compound washout measured after 72 hrs by MTT assay; format: functional, cell-based
[5] = target: NAD(P)H dehydrogenase [quinone] 1 (Homo sapiens) (UniProt P15559); assay: Substrate activity at NQO1 in human A549 cells assessed as induction of enzyme-catalyzed ROS production at 10 uM after 1 to 3 hrs by DCFH-DA-based flow cytometry; format: cell-based
[6] = target: NAD(P)H dehydrogenase [quinone] 1 (Homo sapiens) (UniProt P15559); assay: Substrate activity at NQO1 in human A549 cells assessed as induction of enzyme-catalyzed ROS production at 10 uM after 1 to 3 hrs in presence of NAC by DCFH-DA-based flow cytometry; format: cell-based
[7] = target: NAD(P)H dehydrogenase [quinone] 1 (Homo sapiens) (UniProt P15559); assay: Substrate activity at NQO1 in human A549 cells assessed as induction of enzyme-catalyzed lipid peroxidation by measuring MDA equivalents per protein at 5 uM after 24 hrs by TBARS assay (reference value: 3.53 +/- 1.12 nmol/mg); format: cell-based
[8] = tested on: A549; assay: Effect on total AKT protein levels in human A549 cells at 5 uM after 3 hrs by Western blot analysis relative to control; format: ADME, cell-based; details: a549, 3 h
[9] = target: NAD(P)H dehydrogenase [quinone] 1 (Homo sapiens) (UniProt P15559); assay: Substrate activity at NQO1 in human A549 cells assessed as induction of ROS-induced Akt phosphorylation at S473 at 5 uM after 3 hrs by Western blot analysis relative to control; format: cell-based
[10] = target: NAD(P)H dehydrogenase [quinone] 1 (Homo sapiens) (UniProt P15559); assay: Substrate activity at NQO1 in human A549 cells assessed as induction of ROS-induced Akt phosphorylation at S473 at 10 uM after 3 hrs by Western blot analysis relative to control; format: cell-based
[11] = target: NAD(P)H dehydrogenase [quinone] 1 (Homo sapiens) (UniProt P15559); assay: Substrate activity at NQO1 in human A549 cells assessed as induction of ROS-induced Akt phosphorylation at S473 at 10 uM after 3 hrs in presence of NAC by Western blot analysis relative to control; format: cell-based
[12] = target: NAD(P)H dehydrogenase [quinone] 1 (Homo sapiens) (UniProt P15559); assay: Substrate activity at NQO1 in human A549 cells assessed as induction of ROS-induced Akt phosphorylation at […] at 1 uM after 3 hrs by Western blot analysis relative to control; format: cell-based
[13] = target: NAD(P)H dehydrogenase [quinone] 1 (Homo sapiens) (UniProt P15559); assay: Substrate activity at NQO1 in human A549 cells assessed as induction of ROS-induced Akt phosphorylation at […] at 5 uM after 3 hrs by Western blot analysis relative to control; format: cell-based
[14] = target: NAD(P)H dehydrogenase [quinone] 1 (Homo sapiens) (UniProt P15559); assay: Substrate activity at NQO1 in human A549 cells assessed as induction of ROS-induced Akt phosphorylation at […] at 10 uM after 3 hrs by Western blot analysis relative to control; format: cell-based
[15] = target: NAD(P)H dehydrogenase [quinone] 1 (Homo sapiens) (UniProt P15559); assay: Substrate activity at NQO1 in human A549 cells assessed as induction of ROS-induced Akt phosphorylation at […] at 10 uM after 3 hrs in presence of NAC by Western blot analysis relative to control; format: cell-based
[16] = target: NAD(P)H dehydrogenase [quinone] 1 (Homo sapiens) (UniProt P15559); assay: Substrate activity at NQO1 in human A549 cells assessed as induction of ROS-induced JNK phosphorylation at 10 uM after 3 hrs in presence of NAC by Western blot analysis relative to control; format: cell-based
[17] = target: NAD(P)H dehydrogenase [quinone] 1 (Homo sapiens) (UniProt P15559); assay: Substrate activity at NQO1 in human A549 cells assessed as induction of ROS-induced p38 phosphorylation at T180/Y182 at 1 uM after 3 hrs by Western blot analysis relative to control; format: cell-based
[18] = target: NAD(P)H dehydrogenase [quinone] 1 (Homo sapiens) (UniProt P15559); assay: Substrate activity at NQO1 in human A549 cells assessed as induction of ROS-induced p38 phosphorylation at T180/Y182 at 10 uM after 3 hrs by Western blot analysis relative to control; format: cell-based
[19] = target: NAD(P)H dehydrogenase [quinone] 1 (Homo sapiens) (UniProt P15559); assay: Substrate activity at NQO1 in human A549 cells assessed as induction of ROS-induced p38 phosphorylation at T180/Y182 at 10 uM after 3 hrs in presence of DIC by Western blot analysis relative to control; format: cell-based
[20] = tested on: A549; assay: Effect on total ERK protein levels in human A549 cells at 5 uM after 3 hrs by Western blot analysis relative to control; format: ADME, cell-based; details: a549, 3 h
[21] = target: NAD(P)H dehydrogenase [quinone] 1 (Homo sapiens) (UniProt P15559); assay: Substrate activity at NQO1 in human A549 cells assessed as induction of ROS-induced ERK phosphorylation at 10 uM after 3 hrs in presence of DIC by Western blot analysis relative to control; format: cell-based
[22] = target: NAD(P)H dehydrogenase [quinone] 1 (Homo sapiens) (UniProt P15559); assay: Substrate activity at NQO1 in human A549 cells assessed as induction of ROS-induced ERK phosphorylation after 3 hrs by Western blot analysis; format: cell-based
[23] = tested on: A549; assay: Induction of apoptosis in human A549 cells assessed as nuclei condensation at 0.1 to 5 uM after 24 hrs by DAPI-staining based microscopy; format: functional, cell-based
[24] = tested on: A549; assay: Induction of apoptosis in human A549 cells assessed as increase in cleaved PARP expression at 10 uM after 24 hrs in presence of DIC by Western blot analysis; format: functional, cell-based
[25] = tested on: A549; assay: Antitumor activity against human A549 cells xenografted in athymic nude mouse assessed as tumor growth inhibition at 15 mg/kg, iv administered every other day for 3 weeks measured every day during compound dosing relative to control; format: functional; details: 504 h, read-out: TGI
[26] = tested on: A549; assay: Antitumor activity against human A549 cells xenografted in athymic nude mouse assessed as tumor growth inhibition at 50 mg/kg, iv administered every other day for 3 weeks measured every day during compound dosing relative to control; format: functional; details: 504 h, read-out: TGI
[27] = tested on: Mus musculus; assay: Toxicity in athymic nude mouse xenografted with human A549 cells assessed as effect on body weight at 50 mg/kg, iv administered every other day for 3 weeks; format: organism-based; details: in vivo, 504 h
[28] = tested on: Mus musculus; assay: Toxicity in athymic nude mouse xenografted with human A549 cells assessed as reduction in body weight at 50 mg/kg, iv administered every other day for 3 weeks relative to control; format: organism-based; parameters: scale not given: the % may be the effect or the level left; details: in vivo, 504 h
[29] = organism: Danio rerio; assay: Hepatotoxicity in 48 hrs post fertilized transgenic liver zebrafish larvae model expressing LFABP:EGFP protein at 10 uM measured after 48 hrs post dose by fluorescence based assay; format: organism-based; details: in vivo
[30] = tested on: A549; assay: Induction of ROS levels in human A549 cells xenografted in athymic nude mouse at 15 to 30 mg/kg, iv administered every other day for 3 weeks by DCFH-DA-probe based flow cytometry; format: functional, organism-based
[31] = organism: Homo sapiens; assay: Selectivity ratio for substrate activity at recombinant human NQO1 to substrate activity at CBR (unknown origin)

NAD(P)H dehydrogenase [quinone] 1 (Homo sapiens), sequence (P15559 whole entry): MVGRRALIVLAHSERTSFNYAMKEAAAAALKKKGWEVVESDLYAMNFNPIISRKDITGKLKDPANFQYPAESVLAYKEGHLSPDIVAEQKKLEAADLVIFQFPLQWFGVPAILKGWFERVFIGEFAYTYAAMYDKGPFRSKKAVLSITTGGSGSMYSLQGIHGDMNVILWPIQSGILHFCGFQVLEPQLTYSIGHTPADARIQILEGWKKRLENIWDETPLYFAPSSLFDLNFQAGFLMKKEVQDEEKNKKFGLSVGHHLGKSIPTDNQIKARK

Question: With Cc1cc2c(cc1C)-c1oc(CNc3ccc(CN4CCOCC4)cc3)c(C)c1C(=O)C2=O as the compound, how does the Activity [1] read?
Answer: Its Activity is “Dose-dependent effect”.

Question: What about the solubility [2] of the same compound?
Answer: Its solubility is 0.36 mg/mL (≈ 810 µM).

Question: And the solubility [3]?
Answer: Its solubility is over 1 mg/mL.

Question: What about the IC50 [4] of the same compound?
Answer: The IC50 was 2.2 µM.

Question: What about the Activity [5] of the same compound?
Answer: The Activity was “Active”.

Question: What about the Activity [6] of the same compound?
Answer: Its Activity is “inactive”.

Question: And the Activity [7]?
Answer: The Activity was 10.3 nmol/mg.

Question: And the “fold change (FC)” value [8]?
Answer: The value was 1.14.

Question: What about the fold change (FC) [9] of the same compound?
Answer: The fold change (FC) was 2.01.

Question: What about the fold change (FC) [10] of the same compound?
Answer: Its fold change (FC) is 2.05.

Question: What about the fold change (FC) [11] of the same compound?
Answer: Its fold change (FC) is 0.32.

Question: And the fold change (FC) [12]?
Answer: Its fold change (FC) is 2.38.

Question: And the fold change (FC) [13]?
Answer: Its fold change (FC) is 2.96.

Question: And the fold change (FC) [14]?
Answer: Its fold change (FC) is 4.18.

Question: What about the fold change (FC) [15] of the same compound?
Answer: Its fold change (FC) is 2.8.

Question: What about the fold change (FC) [16] of the same compound?
Answer: Its fold change (FC) is 12.5.

Question: What about the fold change (FC) [17] of the same compound?
Answer: Its fold change (FC) is 11.1.

Question: What about the fold change (FC) [18] of the same compound?
Answer: The fold change (FC) was 16.4.

Question: What about the fold change (FC) [19] of the same compound?
Answer: The fold change (FC) was 9.2.

Question: What about the “fold change (FC)” value [20] of the same compound?
Answer: The value was 0.97.

Question: What about the fold change (FC) [21] of the same compound?
Answer: Its fold change (FC) is 1.27.

Question: And the Activity [22]?
Answer: Its Activity is “Dose-dependent effect”.

Question: And the Activity [23]?
Answer: Its Activity is “Active”.

Question: What about the Activity [24] of the same compound?
Answer: Its Activity is “inactive”.

Question: And the inhibition in vivo at 15 mg/kg [25]?
Answer: The inhibition in vivo at 15 mg/kg was 65.8%.

Question: And the inhibition in vivo at 50 mg/kg [26]?
Answer: Its inhibition in vivo at 50 mg/kg is 90.3%.

Question: And the Activity [27]?
Answer: Its Activity is “Non-Toxic”.

Question: And the Activity [28]?
Answer: The Activity was 18%.

Question: What about the Activity [29] of the same compound?
Answer: Its Activity is “Non-Toxic”.

Question: What about the Activity [30] of the same compound?
Answer: Its Activity is “Active”.

Question: And the Selectivity ratio [31]?
Answer: The Selectivity ratio was 8.49.
